Results on 2 compounds are retold here after US20090169635A1, “PHARMACEUTICAL COMPOSITIONS AND USE THEREOF” (priority 2007, published 2009).

Where a name gives a salt, the structure may show the parent alone. A value given as a limit tells only on which side of the number the result lay.

In data set [1] the test system is Mycobacterium tuberculosis strain H37RV (ATCC 27294). Description: Tuberculosis model: mice inoculated intravenously with M. tuberculosis, treated intraperitoneally for 4 weeks, observed to D56. Particulars: for Numbers of deaths: 4 weeks. The data set is classed as in vivo, BALB/C female mice.
The test system of data set [2] is Mycobacter avium complex (MAC). The following applies: 100 mg/kg IM five days a week for four weeks; cited from earlier work.
The conditions of data set [3]: cited from earlier work.
The test system of data set [4] is Staphylococcus pneumoniae (ATCC 6301). The data set is described as follows: Bacterial pneumonia model: mice inoculated intratracheally, single intravenous treatment 20 hours later, mortality recorded for 10 days. Particulars: Vancomycin dose 1 mg/kg i.v. The data set is classed as in vivo, Male CD-1 mice. The method, then:
An investigation of the antibacterial efficacy of nanoparticulate forms of parenterally administered Vancomycin was carried out in comparison with conventional parenteral Vancomycin […] for injection,
Bacteria: […] (ATCC #6301), Gram-positive serotype
Animals: Male CD-1 (Charles River Laboratory) mice weighing 24±2 g provided are used. Space allocation for animals is 45×23×21 cm for 10 mice. The animals are housed in animal cages and are maintained in a hygienic environment under controlled temperature (22°-23° C.) and humidity (50% -60%) with 12 hours light/dark cycles for at least one week in the laboratory prior to initiation of the study. Free access to standard lab food and water supply is allowed.
Pneumonia model: Mice were inoculated intratracheally (IT) with a LD90-100 of […] pneumoniae (ATCC 6301) (9.7×10^6 […]) in 40 μl PBS. In 16 hours, all mice developed pronounced pneumonia, confirmed by histological observation. Test formulations and vehicle were diluted with 5% sterile dextrose and administered intravenously to animals 20 hours after bacterial inoculation. Mortality was recorded once daily for 10 days.

Setting [5] is: 100 mg/kg i.p., 2 x week, cumulative 800 mg/kg.
Setting [6] is: 200 mg/kg i.p., 5 x week, cumulative 4000 mg/kg.
The mark [7] stands for this setting: D56, 200 mg/kg i.p., 5 x week for 4 weeks.

Turning to `[H]/N=C(/N)N[C@H]1[C@H](O)[C@@H](O)[C@H](O[C@@H]2O[C@@H](C)[C@](O)(C=O)[C@H]2O[C@@H]2O[C@@H](CO)[C@H](O)[C@@H](O)[C@@H]2NC)[C@@H](N/C(N)=N\[H])[C@@H]1O` [Streptomycin USP, Streptomycin sulfate], the Numbers of deaths in data set [1] (100 mg/kg i.p., 2 x week, cumulative 800 mg/kg SM base) is recorded as 5/12; in data set [1] (200 mg/kg i.p., 5 x week, cumulative 4000 mg/kg SM base) it was 1/12. Further, the “Survival rate (%) 14 d” value in data set [1] (setting [5]) was found to be 83%; in data set [1] (setting [6]) it was 92%. For the same compound, the “Survival rate (%) 28 d” value is 58% in data set [1] (setting [5]) and 92% in data set [1] (setting [6]). For the same compound, the “Survival rate (%) 56 d” value in data set [1] (setting [5]) is given as 58%; in data set [1] (setting [6]), 92%. Moreover, the “Body weight” value in data set [1] (D14, 100 mg/kg i.p., 2 x week) was determined as 14.90 ± 1.83 g; in data set [1] (D14, 200 mg/kg i.p., 5 x week), 16.22 ± 0.39 g; in data set [1] (D28, 100 mg/kg i.p., 2 x week) it was 16.73 ± 2.64 g; in data set [1] (D28, 200 mg/kg i.p., 5 x week), 19.62 ± 0.29 g; in data set [1] (setting [7]), 17.85 ± 1.15 g. The “Log (CFU/Lung)” value in data set [1] (D14, 100 mg/kg i.p., 2 x week) is reported as 8.16 ± 0.25 Log (CFU/Lung); in data set [1] (D14, 200 mg/kg i.p., 5 x week) it was 7.85 ± 0.14 Log (CFU/Lung); in data set [1] (D28, 100 mg/kg i.p., 2 x week), 8.37 ± 0.36 Log (CFU/Lung); in data set [1] (D28, 200 mg/kg i.p., 5 x week), 7.57 ± 0.26 Log (CFU/Lung); in data set [1] (setting [7]), 8.86 ± 0.18 Log (CFU/Lung). For the same compound, the “Log (CFU/Spleen)” value is recorded as 7.55 ± 0.26 Log (CFU/Spleen) in data set [1] (D14, 100 mg/kg i.p., 2 x week); 6.90 ± 0.08 Log (CFU/Spleen) in data set [1] (D14, 200 mg/kg i.p., 5 x week); 7.48 ± 0.51 Log (CFU/Spleen) in data set [1] (D28, 100 mg/kg i.p., 2 x week); 6.66 ± 0.28 Log (CFU/Spleen) in data set [1] (D28, 200 mg/kg i.p., 5 x week); 7.21 ± 0.23 Log (CFU/Spleen) in data set [1] (setting [7]). The “bacterial count of MAC from spleen, lungs and liver” value in data set [2] was “significant reduction in bacterial count”.
For the compound “Vancomycin sulfate [Vancomycin injection (USP)]”, the “concentration in epithelial lining fluid” value in data set [3] (patients, lung epithelial lining fluid versus plasma) is listed as ≤ 20 % of plasma levels. The “patients with inadequate concentrations” value in data set [3] (standard dosage (1 g twice daily)) is recorded as “approximately 40 % of patients”. Also, in data set [4] (10 days), the Mortality came out at 70% and the Survival was 30%. For the same compound, in data set [4] (n=10, Day 1), the “Day 1 (deaths recorded that day)” value stood at 0. The “Day 2 (deaths recorded that day)” value in data set [4] (n=10, Day 2) is 0. In addition, the “Day 3 (deaths recorded that day)” value in data set [4] (n=10, Day 3) was determined as 0. For the same compound, the “Day 4 (deaths recorded that day)” value in data set [4] (n=10, Day 4) turned out to be 1. Besides, the “Day 5 (deaths recorded that day)” value in data set [4] (n=10, Day 5) is 3. The “Day 6 (deaths recorded that day)” value in data set [4] (n=10, Day 6) amounted to 2. Besides, in data set [4] (n=10, Day 7), the “Day 7 (deaths recorded that day)” value stood at 0. In data set [4] (n=10, Day 8), the “Day 8 (deaths recorded that day)” value is 1. Also, the “Day 9 (deaths recorded that day)” value in data set [4] (n=10, Day 9) worked out at 0. In addition, the “Day 10 (deaths recorded that day)” value in data set [4] (n=10, Day 10) came out at 0.
